Ends that are not written are not given here.
Tests used:
[1] = system: pig model of transient AMI; experiment: Pig model of transient AMI: transthoracic echocardiography; format: in vivo, Chinese Bama miniature pigs; details: pigs, 2 mg/kg i.v. 40 min after occlusion and 24 hours after reperfusion, day 30, vs saline
[2] = system: pig model of transient AMI; experiment: Pig model of transient AMI: TTC staining and heart infarct; format: in vivo, Chinese Bama miniature pigs; details: pigs, 2 mg/kg i.v. twice, day 30, TTC staining; vs saline, P<0.01
[3] = system: pig model of transient AMI; experiment: Pig model of transient AMI: histological analysis of hearts (H & E); format: in vivo, Chinese Bama miniature pigs
rat model of AMI [4] = experiment: Rat model of AMI: TTC staining and measurement of heart infarct; format: in vivo, Sprague Dawley rats; details: rats, 20 mg/kg i.v. immediately after ligation, hearts removed four hours later; vs saline, P<0.01
rat model of AMI [5] = experiment: Rat model of AMI: heart function (hemodynamic) measurement; details: rats, 20 mg/kg i.v. at 0, 24 and 48 hours after surgery, measured 4 weeks after last injection
Description: Rats were subjected to AMI by ligation of the left anterior descending coronary artery as described previously (Yu, J. G. et al. Acta Pharmacol Sin 34, 1508-1514, doi:10.1038/aps.2013.147 (2013)). Briefly, rats were anesthetized with 100 mg/kg ketamine hydrochloride and 10 mg/kg diazepam by intraperitoneal injection and then received artificial ventilation using a respirator (Shanghai Alcott Biotech, China, ALC-V8) with a tidal volume of 20 mL and a respiratory rate of 60/min. The heart was exteriorized through the 4th intercostal space and the left anterior descending coronary artery was ligated using a 6-0 suture. Rats were placed back in their home cages after the incision was closed. Sham rats underwent the same protocol except without ligation of the coronary artery.
Hemodynamic assessments in rats were conducted as described by Yu et al. (Acta Pharmacol Sin 34, 1508-1514, doi:10.1038/aps.2013.147 (2013)). Briefly, rats were anesthetized with 1.25 g/kg 25% urethane and a polyethylene catheter connected to a pressure transducer (Powerlab 30, ADlnstruments) was inserted into the right carotid artery and then advanced into the left ventricle cavity. The mean heart rate, systolic blood pressure, left ventricular systolic pressure (LVSP), left ventricular end diastolic pressure (LVEDP), and maximal rates of pressure rise (+dp/dtmax) and decline (−dp/dtmax) were recorded for 30 min and then analyzed.
Rats receiving sham surgery were used as control.

[6] = system: primary cardiomyocyte culture; experiment: Cell death assays in H2O2-treated primary cardiomyocyte culture; format: cell-based, Sprague Dawley rats; details: 10 uM peptide, 30 min before 300 uM H2O2 (4 hrs) and during 12 hr recovery
Description: Hearts were removed from P1-2 Sprague Dawley rats and cut into 1 mm^3 cubes. The heart tissue was then digested in the cell digestion buffer at 37° C. for 4 min and centrifuged at 200 rpm for 1 min to remove the supernatant. The pellet was digested in the cell digestion buffer again at 37° C. until it was fully digested and then centrifuged at 200 rpm for 1 min to remove the debris. The sample was mixed with FBS to neutralize trypsin and collagenase and then centrifuged at 1000 rpm for 5 min to remove the supernatant. Cardiomyocytes were isolated from the sample by differential adhesion and then cultured in plates in the cell culture medium. Primary cardiomyocyte cultures were maintained in the 37° C. incubator with 95% […] and 5% CO2 for 5 days before being used for experiments.
Cell death of primary cardiomyocyte culture was measured using a variety of assays. MTT and the activity of creatine kinase, lactate dehydrogenase, malondialdehyde and superoxide dismutase were measured using commercial kits and according to manufacturer's instructions. Cell apoptosis assays were conducted by treating primary cardiomyocyte culture with the Annexin V-FITC cytotoxicity kit, followed by flow cytometry (BD, FACSlalibur) to determine the apoptosis percentage.
Primary cardiomyocyte cultures were treated with 300 uM H2O2 for 4 hours to induce oxidative stress. Then, cardiomyocytes were placed back in the normal culture medium for 12 hours before cell death analysis. 30 min before H2O2 treatment and during the 12 hour-recovery period, some cardiomyocytes were treated with 10 uM NIMoEsh-Tat peptide.

[7] = pigs, 2 mg/kg i.v. twice; vs saline group
Description: The heart rate (a), electrocardiogram (QRS duration (b), QRS voltage (c), T voltage (d) and ST voltage (e)), and body weight (f) were monitored before artery occlusion, after artery occlusion and after reperfusion. […] The NIMoEsh-Tat group: N=5; the saline group: N=5. Data are presented as mean±S.E.M.
The cardioprotective efficacy of the NIMoEsh-Tat peptide was also investigated in Chinese Bama miniature pigs. Transient AMI was induced in these pigs by occluding the left circumflex coronary artery for 1 hour, followed by blood reperfusion. Pigs received one i.v. injection of the NIMoEsh-Tat peptide (2 mg/kg) or saline 40 min after occlusion and another i.v. injection 24 hours after reperfusion. The pigs were evaluated for heart function on day 30 before they were sacrificed for histological analysis.

[8] = male pigs, 2 mg/kg, N number 5, day 30
[9] = male pigs, 2 mg/kg, N number 5, + = slight (almost invisible)
[10] = male pigs, 2 mg/kg, N number 5, ++ = mild (visible but very small)

For “WAAYRTHSVDYGRKKRRQRRR [NIMoEsh-Tat, WAAYRTHSVD-YGRKKRRQRRR]”, the “stroke volume (SV, FIG. 3c)” value ([1]; P<0.001) was “rescued AMI-induced function deficits”, the “ejection fraction (EF, FIG. 3d)” value ([1]; P<0.05) was “rescued AMI-induced function deficits” and the “volume of AMI-induced heart infarct (FIGS. 3e and 3f)” value [2] was “reduced the volume of AMI-induced heart infarct”. For the same sequence, the “Atrial fibrillation, Total (number of pigs)” value [3, 8] was 5, the “Bleeding, Total (number of pigs)” value [3, 8] was 4 and the “Granuloma, Total (number of pigs)” value [3, 8] was 1. The “Inflammation, Total (number of pigs)” value [3, 8] was 4, the “Necrosis, Total (number of pigs)” value [3, 8] was 4 and the “Pericarditis, Total (number of pigs)” value [3, 8] was 0. The “Atrial fibrillation, + (number of pigs)” value [3, 9] was 2, the “Bleeding, + (number of pigs)” value [3, 9] was 4 and the “Granuloma, + (number of pigs)” value [3, 9] was 1. For the same sequence, the “Inflammation, + (number of pigs)” value [3, 9] was 4, the “Pericarditis, + (number of pigs)” value [3, 9] was 0 and the “Atrial fibrillation, ++ (number of pigs)” value [3, 10] was 2. For the same sequence, the “Inflammation, ++ (number of pigs)” value [3, 10] was 0, the “Necrosis, ++ (number of pigs)” value [3, 10] was 0 and the “Atrial fibrillation, +++ (number of pigs)” value ([3]; male pigs, 2 mg/kg, N number 5, +++ = moderate (visible and quantifiable)) was 1. For the same sequence, the “Necrosis, grade not given (number of pigs)” value ([3]; male pigs, 2 mg/kg, N number 5, grade cell empty, line above ++) was 4, the “Pericarditis, grade not given (number of pigs)” value ([3]; male pigs, 2 mg/kg, N number 5, grade cell empty, line below +) was 0 and the “AMI-induced pathology observed under microscope, summary” value ([3]; pigs, 2 mg/kg i.v. twice, day 30, vs saline controls) was “much less AMI-induced pathology”. The “fibrillation in pig heart, H & E image (FIG. 3g)” value ([3]; pigs, 2 mg/kg i.v. twice, day 30, vs saline-treated pig heart) was “less fibrillation”, the “percentage of heart tissue infarct after AMI (FIG. 2a-b)” value (rat model of AMI [4]) was “significantly reduced” and the “+dp/dtmax, maximal rate of pressure rise (FIG. 2g)” value (rat model of AMI [5]; vs saline) was “rescued heart function after AMI”. The “left ventricular systolic pressure (FIG. 2e)” value (rat model of AMI [5]; vs saline) was “rescued heart function after AMI”, the “−dp/dtmax, maximal rate of pressure decline (FIG. 2h)” value (rat model of AMI [5]; vs saline) was “rescued heart function after AMI” and the “heart rate (FIG. 2c)” value (rat model of AMI [5]; vs sham) was “neither saline or NIMoEsh-Tat peptide changed”. For the same sequence, the “systolic blood pressure (FIG. 2d)” value (rat model of AMI [5]; vs sham) was “neither saline or NIMoEsh-Tat peptide changed”, the “H2O2-induced cell death, cell apoptosis assay (FIG. 1b)” value ([6]; Annexin V-FITC, flow cytometry) was “effectively reduced H2O2-induced cell death” and the “CK activity in the culture medium (FIG. 1c)” value ([6]; vs H2O2 group) was “did not fully rescue H2O2-induced increase of CK activity, there was a trend of decreased CK activity”. For the same sequence, the “H2O2-induced cell death, MTT assay (FIG. 1a)” value ([6]; vs H2O2 group) was “effectively reduced H2O2-induced cell death”, the “LDH activity in the culture medium (FIG. 1e)” value ([6]; vs H2O2 group) was “effectively reduced H2O2-induced cell death” and the “MDA activity in cultured cells (FIG. 1d)” value ([6]; vs H2O2 group) was “effectively reduced H2O2-induced cell death”. For the same sequence, the “SOD activity in cultured cells (FIG. 1f)” value ([6]; vs H2O2 group) was “effectively reduced H2O2-induced cell death” and the “body weight recovery after AMI (FIG. 4)” value [7] was “same level of body weight recovery”.
